Reference: PMC7703574 (Journal of medicinal chemistry, 2020)

Legend:
HIV-1 Env pseudoviruses = details: despite low nanomolar potency; cited from earlier work
[1] = phosphate buffer, pH7.4; cited from earlier work
Caco-2 cell monolayer = details: no inhibitor; cited from earlier work
[2] = Cytotoxicity in TZM-bl cells; format: cell-based; details: human
VSV-G pseudovirus = format: cell-based; details: control for HIV-1 specificity
U87-CD4-CXCR4 cells = test: Cytotoxicity in U87-CD4-CXCR4 cells; format: cell-based; details: at the doses used for this assay
Cf2Th-CCR5 cells = test: Cytotoxicity in Cf2Th-CCR5 cells; format: cell-based
[3] = Metabolic stability in human liver microsomes; format: in vitro ADME
CYP3A = test: Cytochrome P450 inhibition CYP3A; format: in vitro ADME; details: human
CYP450 enzymes = test: Cytochrome P450 inhibition, set of CYP450 enzymes; format: in vitro ADME

For COc1ccnc2[nH]cc(C(=O)C(=O)N3CCN(C(=O)c4ccccc4)C[C@H]3C)c12 [BMS-378806, 4-benzoyl-1-[(4-methoxy-1H-pyrrolo-[2,3-b]pyridin-3-yl)oxoacetyl]-2-(R)-methylpiperazine], the “activity against A, C, and D subtypes” value (HIV-1 Env pseudoviruses) is given as “weaker activity”.
In the case of COc1cnc(-n2cnc(C)n2)c2[nH]cc(C(=O)C(=O)N3CCN(C(=O)c4ccccc4)CC3)c12 [BMS-626529], the solubility [1] is listed as 47 to 237 µg/mL, the “Caco-2 permeability mean Papp A-to-B” value (Caco-2 cell monolayer) is listed as 9.27 ×10⁻⁶ cm/s and the “Caco-2 permeability mean Papp B-to-A” value (Caco-2 cell monolayer) is listed as 32 ×10⁻⁶ cm/s.
Compound NC[C@H](NC(=O)c1ccc(-c2ccc(C(F)(F)F)cn2)[nH]1)c1ncc(CO)s1 [Compound 6, N-(2-Amino-1-(5-(hydroxymethyl)thiazol-2-yl)ethyl)-5-(5-(trifluoromethyl)pyridin-2-yl)-1H-pyrrole-2-carboxamide] has a CC50 at 3 d [2] of over 122 µM.
For Cc1cc(-c2ccc(C(F)(F)F)cn2)[nH]c1C(=O)N[C@@H](CN)c1ncc(CO)s1 [Compound 8, N-(2-Amino-1-(5-(hydroxymethyl)thiazol-2-yl)ethyl)-3-methyl-5-(5-(trifluoromethyl)pyridin-2-yl)-1H-pyrrole-2-carboxamide], the “activity against the pseudovirus VSV-G” value (VSV-G pseudovirus) was “poorly active”, the “toxicity in the U87-CD4-CXCR4 cell line” value (U87-CD4-CXCR4 cells) was “did not induce toxicity” and the “toxicity at the doses used in this assay” value (Cf2Th-CCR5 cells) was “did not show toxicity”. It also gave a microsomal CLint [3] of under 11.6 µL/min/mg, an IC50 (CYP3A; probe midazolam) of over 100 µM and an IC50 (CYP3A; probe testosterone) of over 62.2 µM. The “inhibition of CYP1A2, CYP2B6, and CYP3A” value (CYP450 enzymes; at greater than 50 μM dose levels) was “no inhibition” and the “inhibition of the other CYP450 enzymes” value (CYP450 enzymes; at the 100 μM dose level) was “No inhibitory activities”.
In the case of NC[C@@H](NC(=O)c1ccc(-c2ccc(C(F)(F)F)cn2)[nH]1)c1ncc(C(O)CO)s1 (stereo partly shown) [Compound 13, N-(2-Amino-1-(5-(1,2-dihydroxyethyl)thiazol-2-yl)ethyl)-5-(5-(trifluoromethyl)pyridin-2-yl)-1H-pyrrole-2-carboxamide], the CC50 at 3 d [2] is reported as over 113 µM.
NC[C@H](NC(=O)c1ccc(-c2ccc(Cl)cn2)[nH]1)c1nc(CO)cs1 [Compound 16, N-(2-Amino-1-(4-(hydroxymethyl)thiazol-2-yl)ethyl)-5-(5-chloropyridin-2-yl)-1H-pyrrole-2-carboxamide] showed a CC50 at 3 d [2] of over 132 µM.
With NC[C@@H](NC(=O)c1ccc(-c2ccc(F)cn2)[nH]1)c1nc(CO)cs1 [Compound 17, N-(2-Amino-1-(4-(hydroxymethyl)thiazol-2-yl)ethyl)-5-(5-fluoropyridin-2-yl)-1H-pyrrole-2-carboxamide] the CC50 at 3 d [2] was over 138 µM.
Compound Cc1ccc(-c2ccc(C(=O)N[C@H](CN)c3nc(CO)cs3)[nH]2)nc1 [Compound 19, N-(2-Amino-1-(4-(hydroxymethyl)thiazol-2-yl)ethyl)-5-(5-methylpyridin-2-yl)-1H-pyrrole-2-carboxamide] has a CC50 at 3 d [2] of over 140 µM.
For NC[C@@H](NC(=O)c1ccc(-c2ccc(C(F)(F)F)cn2)[nH]1)c1nc(C(O)CO)cs1 (stereo partly shown) [Compound 29, N-(2-Amino-1-(4-(1,2-dihydroxyethyl)thiazol-2-yl)ethyl)-5-(5-(trifluoromethyl)pyridin-2-yl)-1H-pyrrole-2-carboxamide], the CC50 at 3 d [2] was over 113 µM.
For Cc1cc(-c2ccc(C(F)(F)F)cn2)[nH]c1C(=O)N[C@H](CN)c1nc(CO)cs1 [Compound 33, N-(2-Amino-1-(4-(hydroxymethyl)thiazol-2-yl)ethyl)-3-methyl-5-(5-(trifluoromethyl)pyridin-2-yl)-1H-pyrrole-2-carboxamide], the CC50 at 72 h [2] was 85 ± 3 µM, the “activity against the pseudovirus VSV-G” value (VSV-G pseudovirus) was “poorly active” and the “toxicity in the U87-CD4-CXCR4 cell line” value (U87-CD4-CXCR4 cells) was “did not induce toxicity”. The “toxicity at the doses used in this assay” value (Cf2Th-CCR5 cells) was “did not show toxicity”.
Compound NC[C@H](NC(=O)c1ccc(-c2ccc(C(F)(F)F)cn2)[nH]1)c1nc(CO)c(CO)s1 [Compound 36, N-(2-Amino-1-(4,5-bis(hydroxymethyl)thiazol-2-yl)ethyl)-5-(5-(trifluoromethyl)pyridin-2-yl)-1H-pyrrole-2-carboxamide] has a CC50 at 3 d [2] of over 113 µM.
Compound NC[C@@H](NC(=O)c1ccc(-c2ccc(Cl)nc2)[nH]1)c1nc(CO)cs1 [Compound 39, N-(2-Amino-1-(4-(hydroxymethyl)thiazol-2-yl)ethyl)-5-(6-chloropyridin-3-yl)-1H-pyrrole-2-carboxamide] has a CC50 at 3 d [2] of over 132 µM.
NC[C@@H](NC(=O)c1ccc(-c2ccc(C(F)(F)F)nc2)[nH]1)c1nc(CO)cs1 [Compound 41, N-(2-Amino-1-(4-(hydroxymethyl)thiazol-2-yl)ethyl)-5-(6-(trifluoromethyl)pyridin-3-yl)-1H-pyrrole-2-carboxamide] showed a CC50 at 3 d [2] of over 122 µM.
For NC[C@H](NC(=O)c1ccc(-c2ccc(C(F)(F)F)nn2)[nH]1)c1nc(CO)cs1 [Compound 44, N-(2-Amino-1-(4-(hydroxymethyl)thiazol-2-yl)ethyl)-5-(6-(trifluoromethyl)pyridazin-3-yl)-1H-pyrrole-2-carboxamide], the CC50 at 3 d [2] was over 73 µM.
Compound NC[C@@H](NC(=O)c1ccc(-c2ncc(Cl)cn2)[nH]1)c1nc(CO)cs1 [Compound 45, N-(2-Amino-1-(4-(hydroxymethyl)thiazol-2-yl)ethyl)-5-(5-chloropyrimidin-2-yl)-1H-pyrrole-2-carboxamide] has a CC50 at 3 d [2] of over 66 µM.
COc1cc(-c2ccc(C(=O)N[C@H](CN)c3nc(CO)cs3)[nH]2)ccn1 [Compound 47, N-(2-Amino-1-(4-(hydroxymethyl)thiazol-2-yl)ethyl)-5-(2-methoxypyridin-4-yl)-1H-pyrrole-2-carboxamide] showed a CC50 at 3 d [2] of over 133 µM.
